From EPA's ToxValDB 9.5 come the findings set out here.

Values joined by “and” are separate entries in the source; they are usually repeats but may differ in a detail not shown here. Equal entries are not always repeated. Bounds are passed on as bounds.

Series [1] has as its system Rattus norvegicus.
The subject of series [2] is Rattus norvegicus. Particulars: subchronic; duration: 13 weeks; oral; diet; M; Sprague-Dawley; renal.
The subject of series [3] is Rattus norvegicus. The source holds these as a separate data set.
Series [4] has as its system Oryctolagus sp. As to conditions: acute; oral.
Series [5] deals with Rattus norvegicus. Particulars: for NOAEL: Sprague-Dawley.
In series [6] the test system is Rattus norvegicus. Particulars: subchronic, oral, M/F.
The test system of series [7] is Mus musculus. Particulars: uterotrophic, Active.
Series [8] has as its system Rattus norvegicus. As to conditions: for LEL: uterotrophic, Active; for NOEL: Hershberger, oral, gavage.
Series [9] deals with Rattus norvegicus. Particulars: short-term; duration: 3 days; injection; subcutaneous; F; Crj:CD; uterus: uterine dry weight (absolute).
The mark [10] stands for this setting: subchronic, duration: 90 days, oral, M/F, hematologic, hepatic and renal toxicity.
[11] abbreviates: duration: 1 days, injection, subcutaneous.
[12] abbreviates: duration: 7 days, injection, subcutaneous.
Where [13] appears, read: chronic, oral, gavage, F, increased kidney weight in female rats.
Where [14] appears, read: subchronic, duration: 13 weeks, inhalation, M/F, increased kidney weight in female rats and adrenal weight in male and female rats.
The mark [15] stands for this setting: chronic, oral, M/F, renal damage.
The mark [16] stands for this setting: chronic, duration: 2 years, oral, diet, M/F, reduced weight gains hematological females.

`O=C(O)COc1ccc(Cl)cc1Cl` [2,4-Dichlorophenoxyacetic acid] came in with an LOAEL in [1] (setting [10]) of 5 mg/kg-day. The NOAEL stood at 1 mg/kg-day in [1] (setting [10]); 16.6 mg/kg-day in series [2]; 1 mg/kg-day in series [3] (chronic, duration: 91 days, oral, diet, Blood: Toxicity + Kidney: Toxicity + Liver: Toxicity).
On to `CC(C)(c1ccc(O)cc1)c1ccc(O)cc1` [Bisphenol A], for which the LD50 in series [4] was 2230 mg/kg; in series [5] (acute, oral, Fischer 344) it was 4100 mg/kg and 3300 mg/kg. In series [5] (acute, inhalation, particle, Fischer 344), the median lethal concentration (LC50) is > 170 µg/mL. Moreover, the NOAEL in series [5] (developmental, duration: 10 days, oral, gavage) is > 640 mg/kg-day; in series [5] (reproduction developmental, duration: 13 weeks, oral, diet, generation: F0), 75 ppm; in [5] (reproduction developmental, duration: 13 weeks, oral, diet, generation: F1) it was 750 ppm; in series [3] (subchronic, duration: 13 weeks, oral, Whole body: Decreased weight) it was 750 ppm. Besides, the lowest-observed-adverse-effect level (LOAEL) in series [5] (reproduction developmental, duration: 103 weeks, oral, diet, Fischer 344, generation: F0) was found to be 1000 ppm; in series [1] (chronic, oral, M/F, reduced mean body weight), 50 mg/kg-day. The NOEL in series [6] (gavage, Crj:CD, Deaths + Clinical Observation: Loose stool Locomotor activity decrease, Hypopnea Subnormal temperature decrease + Body Weight Changes: …) came to 40 mg/kg-day; in [9], 2 mg/kg-day. Besides, the LEL is 0.00228 mg in series [7] (duration: 0.17 days, injection, subcutaneous); 10 mg/kg-day in series [7] (setting [11]); 20 mg/kg-day in series [7] (duration: 3 days, injection, intraperitoneal); 100 mg/kg-day in series [7] (duration: 3 days, osmotic minipump); 100 mg/kg-day in series [7] (setting [12]); 400 mg/kg-day in [8] (setting [11]). Besides, the LEL turned out to be 200 mg/kg-day in series [8] (duration: 2 days, injection, subcutaneous); 0.5 mg/kg-day in series [8] (duration: 4 days, injection, intraperitoneal); 11 mg/kg-day in [8] (setting [12]); 150 mg/kg-day in [8] (duration: 7 days, lactation). This compound registered an LOEL in series [9] of 20 mg/kg-day.
As to `CC(C)c1ccccc1` [Cumene], the figures for the LOAEL in series [1] (setting [13]) and in [1] (setting [14]) were 331 mg/kg-day and 5910 mg/m3, respectively. The NOAEL is 110 mg/kg-day in series [1] (setting [13]); 2440 mg/m3 in [1] (setting [14]); 154 mg/kg-day in series [3] (chronic, duration: 194 days, oral, gavage, Kidney: Increased weight); 517 mg/m3 in [3] (short-term, duration: 4 weeks, inhalation, intermittent, Central nervous system: Involvement + Nose: Irritation).
Consider `COC(=O)c1ccc(C(=O)OC)cc1` [Dimethyl terephthalate], for which the NOAEL in [6] (duration: 90 days, diet, Body Weight Changes: Weight gain decrease + Histopathology: Liver: Hepatocyte hypertrophy, diffuse) came to 480 mg/kg-day. Further, the LOAEL in series [1] (chronic, oral, diet, M/F, chronic kidney inflammation) is 125 mg/kg-day; in series [3] (chronic, duration: 103 weeks, oral, diet, Kidney: Inflammation), 125 mg/kg-day.
For `CC(=O)[O][Hg][c]1ccccc1` [Phenylmercuric acetate], in series [1] (setting [15]), the lowest-observed-adverse-effect level (LOAEL) amounted to 0.042 mg/kg-day and the no-observed-adverse-effect level (NOAEL) was found to be 0.0084 mg/kg-day. This compound also had an NOAEL in series [3] (chronic, duration: 2 years, oral, diet, Kidney: Damage) of 0.0084 mg/kg-day.
Compound `CCNc1nc(Cl)nc(NCC)n1` [Simazine] gave an LOAEL in series [1] (setting [16]) of 5.3 mg/kg-day. Moreover, the NOAEL in [1] (setting [16]) was determined as 0.52 mg/kg-day; in series [3] (chronic, duration: 2 years, oral, diet, Blood: Hematological effects + Whole body: Decreased weight gain) it was 0.52 mg/kg-day. For the same compound, the NOEL was 6.25 mg/kg-day in series [8] (duration: 7 days, Wistar, inactive + Negative + neither + AST wt decreased at 75 and above / doses above 75 associated with >10% decrease in body wt / cite a …); 25 mg/kg-day in series [8] (duration: 10 days, Sprague-Dawley, inactive + Negative + Negative + neither + AST wt decreased at 75 and above / doses above 75 associated with >10% decrease in body wt).
Take `C=CBr` [Vinyl bromide]: the lowest observed adverse effect level (LOAEL) in [1] (chronic, inhalation, M/F, hypertrophy, basophilic and eosinophilic foci, in the liver) amounted to 43 mg/m3; in [3] (chronic, duration: 24 months, inhalation, intermittent, Liver: Basophilic foci + Liver: Eosinophilic foci + Liver: Hypertrophy) it was 42.4 mg/m3.
Consider `S=C([S-])NCCNC(=S)[S-].[Zn+2]` [Zineb], for which the LOAEL in series [1] (chronic, oral, M/F, thyroid hyperplasia) amounted to 25 mg/kg-day; in series [3] (chronic, duration: 2 years, oral, diet, hyperplasia), 25 mg/kg-day.

A word on the LOAEL: it is the lowest tested level that showed an adverse finding. In general, NOAEL refers to the highest tested level that showed no adverse finding. The term LD50 denotes the dose expected to kill half of the subjects tested. A higher LD50 goes with lower toxicity. By LC50 is commonly meant the concentration lethal to half of the exposed cells or organisms. Read a low LC50 as a more lethal substance.
